Laboratory results as given in US20240272165A1, “A METHOD TO IDENTIFY EXCEPTIONAL ANTI-TUMOR BENEFIT FROM BRAF TARGETED THERAPIES” (The Brigham and Women's Hospital, priority 2021, published 2024).

Assays:
Malme3M = assay: growth rate effect of drugs in sgGAPDHS genome-edited cells versus control; type: cell-based; conditions: spCas9/sgGAPDHS genome-editing
Source text: FIGS. 8A-8C. GAPDHS is required for BRAF inhibitor sensitivity in vitro. Lentiviral spCas9/sgGAPDHS genome-editing in Malme3M 8A) reduces protein levels (WB) but not signaling consequences following vemurafenib or PD-0325901. 8B) reduction in the inherent NAD+/NADH ratio is seen, but not treatment affected changes; however the basal NADP+/NADPH ratio is higher and treatment causes divergent changes. 8C) Growth rates are less affected by vemurafenib, PD-0325901, cobimetinib, and PLX7904 due to sgGAPDHS targeting. Significance using 2-sided, 2-sample t-test; *p<0.05; **p<0.01.
We generated short-guide RNA (sgRNA) for CRISPR/Cas9-mediated genome-editing within the pLentiCRISPRv2 system to assess whether GAPDHS regulates sensitivity to BRAF-targeted drugs through the metabolic state. […] (FIG. 8C). […] We will expand these analyses to also include SKMEL28 and UACC62, and assess dabrafenib and encorafenib. We will also measure basal and changes following BRAF/MEK-inhibitor on the inherent metabolic state, measured as NAD(P)+/NAD(P)H ratios and GAPDH/S activity.

SKMEL2(NRAS-Q61R) = assay: drug-mediated growth inhibition as percentage of baseline doubling rate; type: cell-based; conditions: NRAS-mutant SKMEL2
Source text: FIGS. 5A-5B. Response to BRAF/MEK inhibition in melanoma cells was associated with the inherent metabolic state. 5A) Effects on cell doubling rates caused by vemurafenib and PD0325901 treatment in melanoma and carcinoma cell lines. […] 5B) Pearson metric of PD-0325901 growth rate effects used on gene-level transcription data (HuExon 1.0ST) for Gene Set Enrichment Analysis (GSEA) identified specific pathways associated with sensitivity, particularly oxidative phosphorylation, and resistance to BRAF/MEK inhibition.
Because melanoma cells undergo metabolic shift in response to BRAF- and MEK-targeted therapy, we wanted to characterize the drug sensitivities across a melanoma cell line cohort (FIG. 4A). To ensure that rapidly growing cells versus slow were compared in a normalized manner, we assessed the degree of drug-mediated growth inhibition as percentage of the baseline doubling rate for each cell line (FIG. 5A). This approach was based on classical chemotherapy effect measures [26;27 recently used by others].

SMILES | sensitivity (measured as growth rate effect) of sgGAPDHS cells versus control (Malme3M) | doubling rate under BRAF inhibitor, % of normal doubling rate (SKMEL2(NRAS-Q61R))
CCN(C)S(=O)(=O)Nc1ccc(F)c(C(=O)c2c[nH]c3ncc(-c4cnc(C5CC5)nc4)cc23)c1F [PLX7904] | reduced sensitivity | 
O=C(NOC[C@H](O)CO)c1ccc(F)c(F)c1Nc1ccc(I)cc1F [PD-0325901] | reduced sensitivity | 
CCCS(=O)(=O)Nc1ccc(F)c(C(=O)c2c[nH]c3ncc(-c4ccc(Cl)cc4)cc23)c1F [vemurafenib] |  | 100%
O=C(c1ccc(F)c(F)c1Nc1ccc(I)cc1F)N1CC(O)([C@@H]2CCCCN2)C1 [cobimetinib] | reduced sensitivity | 
Cc1nc(NC(=O)N2CCC[C@H]2C(N)=O)sc1-c1ccnc(C(C)(C)C(F)(F)F)c1 [BYL719] | did not, however, observe reduced sensitivity | 
